# Tested on: NO production
# Assay: nitric oxide
# Assay type: cell-based
# Details: read-out: NO production inhibition IC50
structure (smiles),measurement,value
COc1ccc2c(c1)c(CC(=O)O)c(C)n2C(=O)c1ccc(Cl)cc1 [Indomethacin],IC50,32.2 µM

# Source: PMC7772550 (Heliyon, 2020)
